Measurements published in PubChem BioAssay (NCI).
“And” between values parts separate entries of the source, which are not always exact repeats. Identical values can stand only once.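 Grown in 96-well plates, cells were treated for 48 hours with each compound at five concentrations. Insufficient inhibition: endpoint recorded as highest concentration tested. GI50: concentration for 50% inhibition of growth. TGI: total growth inhibition.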

Columns and labels:
Test in all cases: inhibition of tumour cell growth, NCI panel, 48 h
786-0 renal = test system: 786-0 renal
DU-145 prostate = test system: DU-145 prostate
HCT-116 colon = test system: HCT-116 colon
HL-60(TB) leukemia = test system: HL-60(TB) leukemia
MDA-MB-231 breast = test system: MDA-MB-231 breast
RPMI-8226 leukemia = test system: RPMI-8226 leukemia
SF-295 CNS = test system: SF-295 CNS
SNB-75 CNS = test system: SNB-75 CNS
A498 renal = test system: A498 renal
MOLT-4 leukemia = test system: MOLT-4 leukemia

## CC(C)(C)NCc1cc(C(C)(C)C)cc(-c2ccc(Cl)cc2)c1O
786-0 renal
  TGI: 26.8 µM
DU-145 prostate
  TGI: 24.7 µM
HCT-116 colon
  TGI: 26 µM
HL-60(TB) leukemia
  TGI: 23.4 µM
MDA-MB-231 breast
  TGI: 24.8 µM
RPMI-8226 leukemia
  TGI: 40.5 µM
SF-295 CNS
  TGI: 36.6 µM
SNB-75 CNS
  TGI: 22.7 µM

## Cc1ccc(S(=O)(=O)NC(=O)NC23CC4CC(CC(F)(C4)C2)C3)cc1
786-0 renal
  TGI: > 100 µM
A498 renal
  TGI: > 100 µM
HCT-116 colon
  TGI: > 100 µM
HL-60(TB) leukemia
  TGI: > 100 µM
MOLT-4 leukemia
  TGI: > 100 µM
RPMI-8226 leukemia
  TGI: > 100 µM
SNB-75 CNS
  TGI: > 100 µM

## CO/C1=C\C(C)=C\C(C)C(O)C(C)C/C(C)=C/C=C/C(OC)C(C(C)C(O)C(C)C2(O)CC(O)C(C)C(C(C)C)O2)OC1=O (centres undefined)
786-0 renal
  TGI: 10.4 µM
HL-60(TB) leukemia
  TGI: 0.0136 µM
MOLT-4 leukemia
  TGI: 11.7 µM
SF-295 CNS
  TGI: 0.0215 µM and 0.0198 µM
SNB-75 CNS
  GI50: 0.0396 µM

## COc1cccc(C(=O)N2CCc3ccccc32)c1OC
786-0 renal
  TGI: > 100 µM
HCT-116 colon
  TGI: > 100 µM
HL-60(TB) leukemia
  TGI: 91.1 µM
MOLT-4 leukemia
  TGI: 78.7 µM
RPMI-8226 leukemia
  TGI: > 100 µM
SF-295 CNS
  TGI: > 100 µM
SNB-75 CNS
  TGI: > 100 µM

## CCOC(=O)C1(Cc2ccccc2)CCCCCN1 (centres undefined)
786-0 renal
  TGI: > 100 µM
HL-60(TB) leukemia
  TGI: > 100 µM
SF-295 CNS
  TGI: > 100 µM
SNB-75 CNS
  TGI: 92.6 µM

## COc1cc(/C=C\[N+](=O)[O-])ccc1OCc1ccccc1
786-0 renal
  GI50: 1.84 µM
  TGI: 3.74 µM
DU-145 prostate
  GI50: 1.8 µM
  TGI: 3.52 µM
HL-60(TB) leukemia
  GI50: 2.48 µM
  TGI: 6.16 µM
MDA-MB-231 breast
  GI50: 1.85 µM
  TGI: 5.55 µM
MOLT-4 leukemia
  GI50: 2.7 µM
  TGI: 7.61 µM
RPMI-8226 leukemia
  GI50: 0.43 µM
  TGI: 2.73 µM
SF-295 CNS
  GI50: 4.07 µM
  TGI: 18.8 µM
SNB-75 CNS
  GI50: 1.63 µM
  TGI: 6.79 µM

## Nc1ccc(S(=O)(=O)C23CC4CC(CC(C4)C2)C3)cc1
786-0 renal
  TGI: > 100 µM
A498 renal
  TGI: > 100 µM
DU-145 prostate
  TGI: > 100 µM
HCT-116 colon
  TGI: > 100 µM
HL-60(TB) leukemia
  TGI: > 100 µM
MDA-MB-231 breast
  TGI: > 100 µM
RPMI-8226 leukemia
  TGI: > 100 µM
SF-295 CNS
  TGI: > 100 µM

## NC(=O)N/N=C/C(/C=N/NC(N)=O)[N+](=O)[O-]
786-0 renal
  TGI: > 100 µM
A498 renal
  TGI: > 100 µM
HCT-116 colon
  TGI: > 100 µM
HL-60(TB) leukemia
  TGI: > 100 µM
RPMI-8226 leukemia
  TGI: > 100 µM
SF-295 CNS
  TGI: > 100 µM
SNB-75 CNS
  TGI: > 100 µM

## C1CCN(c2nsc(N3CCCCC3)n2)CC1
786-0 renal
  TGI: > 100 µM
A498 renal
  TGI: > 100 µM
HCT-116 colon
  TGI: > 100 µM
HL-60(TB) leukemia
  TGI: > 100 µM
MOLT-4 leukemia
  TGI: > 100 µM
RPMI-8226 leukemia
  TGI: > 100 µM
SF-295 CNS
  TGI: > 100 µM
SNB-75 CNS
  TGI: > 100 µM

## NC(=O)c1cc(Br)cc(C2CCCCC2)c1O
786-0 renal
  GI50: 11.8 µM
  TGI: 24.4 µM
A498 renal
  GI50: 1.01 µM
  TGI: 14.8 µM
DU-145 prostate
  GI50: 12.3 µM
  TGI: 24.9 µM
HCT-116 colon
  GI50: 12.5 µM
  TGI: 25 µM
HL-60(TB) leukemia
  GI50: 20.9 µM
  TGI: 46.3 µM
MDA-MB-231 breast
  GI50: 12.1 µM
  TGI: 25.3 µM
MOLT-4 leukemia
  GI50: 13.9 µM
  TGI: 34.5 µM
SF-295 CNS
  GI50: 11.3 µM
  TGI: 24.5 µM
SNB-75 CNS
  GI50: 11.9 µM
  TGI: 25.9 µM

## O=C(O)/C(=C/c1c(O)ccc2ccccc12)c1csc(-c2nc(/C(=C\c3c(O)ccc4ccccc34)C(=O)O)cs2)n1
786-0 renal
  TGI: 26.8 µM
A498 renal
  TGI: 41.7 µM
HCT-116 colon
  TGI: 23.3 µM
HL-60(TB) leukemia
  TGI: 26.4 µM
MOLT-4 leukemia
  TGI: 36.9 µM
RPMI-8226 leukemia
  TGI: 43.8 µM
SF-295 CNS
  TGI: 28.5 µM
SNB-75 CNS
  TGI: 23.2 µM

## COc1ccc2c(c1OC)C1=C(C2=O)c2cc3c(cc2CCN1)OCO3
786-0 renal
  TGI: > 100 µM
A498 renal
  TGI: > 100 µM
HCT-116 colon
  TGI: > 100 µM
HL-60(TB) leukemia
  TGI: 53.9 µM
MOLT-4 leukemia
  TGI: 83.9 µM
RPMI-8226 leukemia
  TGI: 59.3 µM
SF-295 CNS
  TGI: > 100 µM
SNB-75 CNS
  TGI: 5.9 µM

## Nc1ccc2c(c1)NCCN2
786-0 renal
  TGI: > 100 µM
DU-145 prostate
  TGI: > 100 µM
HCT-116 colon
  TGI: > 100 µM
HL-60(TB) leukemia
  TGI: 89.4 µM
MDA-MB-231 breast
  TGI: > 100 µM
MOLT-4 leukemia
  TGI: 89.7 µM
RPMI-8226 leukemia
  TGI: > 100 µM
SF-295 CNS
  TGI: > 100 µM
SNB-75 CNS
  TGI: > 100 µM

## O=C1C[C@@H]2C(COC(=O)c3ccccc3)N(OCc3ccccc3)C[C@@H]2O1 (some centres undefined)
786-0 renal
  TGI: > 100 µM
A498 renal
  TGI: > 100 µM
HCT-116 colon
  TGI: > 100 µM
HL-60(TB) leukemia
  TGI: > 100 µM
MOLT-4 leukemia
  TGI: > 100 µM
SNB-75 CNS
  TGI: > 100 µM

## COc1cc2noc(-c3ccccc3)c2cc1OC
786-0 renal
  TGI: > 100 µM
A498 renal
  TGI: 83.1 µM
HCT-116 colon
  TGI: > 100 µM
HL-60(TB) leukemia
  TGI: > 100 µM
MOLT-4 leukemia
  TGI: > 100 µM
RPMI-8226 leukemia
  TGI: 56.7 µM
SF-295 CNS
  TGI: 38.6 µM
SNB-75 CNS
  TGI: 35.4 µM

## CCOC(=O)c1[nH]c(-c2ccc(Cl)cc2)cc1-c1cccnc1
786-0 renal
  GI50: 0.44 µM
  TGI: 8.58 µM
A498 renal
  GI50: 0.811 µM
  TGI: 9.37 µM
DU-145 prostate
  GI50: 1.88 µM
  TGI: > 100 µM
HCT-116 colon
  GI50: 0.387 µM
  TGI: > 100 µM
MDA-MB-231 breast
  GI50: 1.67 µM
  TGI: > 100 µM
MOLT-4 leukemia
  GI50: 0.683 µM
  TGI: > 100 µM
SF-295 CNS
  GI50: 0.453 µM
  TGI: > 100 µM
SNB-75 CNS
  GI50: 0.738 µM
  TGI: > 100 µM

## COCC(=O)CP(=O)(OC)OC
786-0 renal
  TGI: > 100 µM
A498 renal
  TGI: > 100 µM
HCT-116 colon
  TGI: > 100 µM
HL-60(TB) leukemia
  TGI: > 100 µM
MOLT-4 leukemia
  TGI: > 100 µM
RPMI-8226 leukemia
  TGI: > 100 µM
SF-295 CNS
  TGI: > 100 µM
SNB-75 CNS
  TGI: > 100 µM

## Cc1c(C(=O)c2ccccc2C(=O)O)c2ccccc2n1C
786-0 renal
  TGI: > 100 µM
A498 renal
  TGI: > 100 µM
HCT-116 colon
  TGI: > 100 µM
HL-60(TB) leukemia
  TGI: > 100 µM
MOLT-4 leukemia
  TGI: > 100 µM
RPMI-8226 leukemia
  TGI: > 100 µM
SF-295 CNS
  TGI: > 100 µM
SNB-75 CNS
  TGI: > 100 µM

## O=c1cc2ccccc2nn1Cc1ccccc1Cl
786-0 renal
  TGI: > 100 µM
A498 renal
  TGI: > 100 µM
HCT-116 colon
  TGI: > 100 µM
RPMI-8226 leukemia
  TGI: > 100 µM
SF-295 CNS
  TGI: > 100 µM
SNB-75 CNS
  TGI: 93.8 µM

## Cn1c(=O)nc2n(-c3cccc(F)c3)c3ccccc3nc-2c1=O
786-0 renal
  TGI: > 100 µM
A498 renal
  TGI: > 100 µM
HCT-116 colon
  TGI: 77.8 µM
MOLT-4 leukemia
  TGI: 54.1 µM
RPMI-8226 leukemia
  TGI: 72.6 µM
SF-295 CNS
  TGI: > 100 µM
SNB-75 CNS
  TGI: 78.5 µM

## CCNC(=O)C#CC(=O)NCC
786-0 renal
  GI50: > 10 µM
  TGI: > 100 µM
A498 renal
  GI50: > 100 µM
  TGI: > 100 µM
HCT-116 colon
  GI50: > 10 µM
  TGI: > 10 µM and 47.7 µM
HL-60(TB) leukemia
  GI50: > 10 µM
  TGI: > 53.9 µM
MOLT-4 leukemia
  GI50: > 10 µM
  TGI: > 100 µM
RPMI-8226 leukemia
  GI50: > 10 µM
  TGI: > 62.8 µM
SF-295 CNS
  GI50: > 10 µM
  TGI: > 100 µM
SNB-75 CNS
  GI50: > 10 µM
  TGI: > 100 µM

## CN1c2ccccc2N(C)C2C1N(C)c1ccccc1N2C (centres undefined)
786-0 renal
  TGI: > 100 µM
A498 renal
  TGI: 84.1 µM
HCT-116 colon
  TGI: 42.4 µM
HL-60(TB) leukemia
  TGI: 7 µM
MOLT-4 leukemia
  TGI: 9.69 µM
RPMI-8226 leukemia
  TGI: 62.9 µM
SF-295 CNS
  TGI: > 100 µM
SNB-75 CNS
  TGI: 71.1 µM

## COc1cc(/C=C2\CC3C4CC=C5C[C@@H](OC(C)=O)CC[C@]5(C)C4CC[C@]3(C)C2=O)ccc1OCCCn1ccnc1 (some centres undefined)
786-0 renal
  GI50: 8.87 µM
  TGI: 16 µM
A498 renal
  GI50: 9.31 µM
  TGI: 21.6 µM
DU-145 prostate
  GI50: 1.31 µM
  TGI: 10.2 µM
HCT-116 colon
  GI50: 13.4 µM
  TGI: 29.6 µM
HL-60(TB) leukemia
  GI50: 11.2 µM
  TGI: 21.8 µM
MDA-MB-231 breast
  GI50: 8.05 µM
  TGI: 15.4 µM
MOLT-4 leukemia
  GI50: 20.5 µM
  TGI: > 50 µM
RPMI-8226 leukemia
  GI50: 9.66 µM
  TGI: 24.2 µM
SF-295 CNS
  GI50: 9.22 µM
  TGI: 22.3 µM
